One assay concerns YAP-TEAD interaction. In words: SK-HEP-1 reporter assay (8x TEAD responsive elements driving NanoLuc luciferase). In kind it is cell-based. To be noted: Homo sapiens, SK-HEP1; SK-HEP-1 TEAD-NanoLuc reporter cells, 24 hour incubation, luciferase readout. The procedure: To identify inhibitors of YAP-TEAD interaction, 8× TEAD responsive elements driving the NanoLuc® luciferase gene were stably integrated into SK-HEP-1 cells (ECACC #: 91091816).
For the assay, cells were treated in duplicates with the test compounds in a 10-point dose, with the top concentration starting at 30 μM (final concentration in assay). After a 24 hour incubation at 37° C., 95% rH, and 5% CO2, a luciferase substrate/lysis reagent mix (NanoGlo™, Promega) was added to the cells, allowing the quantification of cellular luciferase activity.
Cell Media: The cells were cultured in the following media: MEM, +10% FBS, +1× GlutaMAX, +1 mM Sodium-Pyruvate, +100 μM Non-essential amino acids, +0.1 mg/ml Hygromycin. The media used for the assay was: MEM (w/o Phenol Red), +10% FBS, +1× GlutaMAX, +1 mM Sodium-Pyruvate, +100 μM Non-essential amino acids, +0.5% Pen/Strep
(§1) Reagents: The reagents used are listed below:
Cell culture: The cells were examined using an inverted microscope to check for health and cell density. To dissociate adherent cells, the monolayer of cells was washed once with pre-warmed PBS. After removing the PBS, 3 ml pre-warmed Accutase® was added to a F75 flask, dispersed evenly and the flask was allowed to sit in incubator for ˜4-5 minutes.
(§2) When a single cell suspension was obtained, 7 ml of prewarmed growth media was added and resuspended with the cells. The cell suspension was transferred to a sterile 15 ml conical centrifuge tube, and spun for 5 min at 300×g, RT. The supernatant was discarded and the pellet was resuspended in 10 ml of pre-warmed growth media.
(§3) The total cell count was determined, and 20 μl of the desired cell number was added to each well of a 384 well plate using a Multidrop Combi. The plates were then incubated for 24 hours at 37° C., 95% rH, and 5% CO2.
(§4) Compound treatment: 24 hours after seeding, the cells were treated with compounds.
(§5) A 1:333 dilution of compounds, diluted in DMSO, was made to get a final concentration of 0.3% DMSO per well. To transfer the compounds to the assay plate, 120 nl was shot from Labcyte low dead volume plates to the cell plates containing 20 μl media/well with the ECHO 555 liquid handling system.
(§6) After treatment, the cells were fed with 20 μl fresh pre-warmed assay media using a Multidrop combi.
The assay plates were then incubated for another 24 h at 37° C., 95% rH, and 5% CO2.
Luciferase readout: 24 h after treatment, the plates were taken out of the incubator and were allowed to equilibrate to RT. 30 μl of NanoGlo® reagent was added to the plates in the dark. Plates were shaken for 20 min on a Teleshake (˜1500 rpm) in the dark. The luminescence was then measured using an EnVision microplate reader. The IC50 values were generated using Genedata Screener®.
Experimental data in SK-HEP-1 reporter assay of the compounds shown in Table 1 are shown in Table 2 below and classified in the following groups: […]
A general note: A reporter such as luciferase makes a cellular process visible.

Another assay concerns NCI-H226 cells. In words: Viability assay in NCI-H226 (Yap-dependent) cells, CyQUANT. In kind it is cell-based. The following applies: Homo sapiens, 96 hour incubation. The procedure: The ability of YAP-TEAD inhibitors to inhibit tumor cell growth was evaluated using two different cell lines: NCI-H226, which is a YAP dependent cell line, and SW620 cells, where YAP and TAZ were knocked out using CRISPR to generate a YAP independent cell line.
For the assay, cells were treated in duplicates with the test compounds in a 10-point dose, 1:3 dilution steps, with the top concentration starting at 30 μM (final concentration in assay). After a 96 hour incubation at 37° C., 95% rH, and 5% CO2, a cell-permeant DNA-binding dye that stains only healthy cells (CyQUANT®, Promega) was added to the cells, allowing the quantification of cell viability.
Cell Media: The NCI-H226 cells were cultured in the following media: RPMI 1640, +10% FBS, +1× GlutaMAX, +10 mM HEPES, +0.5% Pen/Strep. The SW620-KO cells were cultured in the following media: DMEM/F-12, +10% FBS, +1× GlutaMAX, +10 mM HEPES, +0.5% Pen/Strep.
as §1
Cell culture: The cells were examined using an inverted microscope to check for health, cell density, etc. To dissociate adherent cells, the monolayer of cells was washed once with pre-warmed PBS. After removing the PBS, 3 ml pre-warmed Accutase was added to a F75 flask, dispersed evenly and the flask was allowed to sit in incubator for ˜4-5 minutes.
as §2, §3, §4, §5, §6
The assay plates were then incubated for 96 h at 37° C., 95% rH, and 5% CO2.
96h after treatment 30 μl of CyQuant® reagent was added to the assay plates using a Multidrop combi in the dark. The plates were then incubated for 1 hour at 37° C., 95% rH and 5% CO2. Thereafter, the assay plates were removed from the incubator and allowed to equilibrate to RT for 30 min in the dark without lid. Finally, they were measured using an EnVision microplate reader with a FITC bottom read program.
Experimental data in the Viability assay of the compounds shown in Table 1 are shown in Table 3 below and classified in the following groups: […]

As a reminder, the IC50 is the concentration needed to halve the response being measured. In the assay with YAP-TEAD interaction, `Cc1ccc2c(c1)c1cc(C(=O)NC[C@@H](O)CO)ccc1n2-c1ccc(C(F)(F)F)cc1` (single isomer, unassigned) [Compound 68, N-[(2R or 2S)-2,3-dihydroxypropyl]-6-methyl-9-[4-(trifluoromethyl)phenyl]-9H-carbazole-3-carboxamide] registered an IC50 of 10 to 100 nM.
On the same count and under the same terms, the result for `Cc1ccc2c(c1)c1cc(C(=O)NC[C@H](O)CO)ccc1n2-c1ccc(C(F)(F)F)cc1` (single isomer, unassigned) [Compound 69, N-[(2S or 2R)-2,3-dihydroxypropyl]-6-methyl-9-[4-(trifluoromethyl)phenyl]-9H-carbazole-3-carboxamide] reads 100 to 1000 nM.
`O=C(O)c1ccc2c(c1)c1cc(Cc3cccc(F)c3)ccc1n2-c1ccc(C(F)(F)F)cc1` [Compound 2, 6-[(3-fluorophenyl)methyl]-9-[4-(trifluoromethyl)phenyl]-9H-carbazole-3-carboxylic acid]: the values for the IC50 in the assay on YAP-TEAD interaction and in the assay with NCI-H226 cells were 100 to 1000 nM and 0.1 to 1 µM, respectively.
For `O=C(O)c1ccc2c(c1)c1cc(Cc3ccccc3F)ccc1n2-c1ccc(C(F)(F)F)cc1` [Compound 3, 6-[(2-fluorophenyl)methyl]-9-[4-(trifluoromethyl)phenyl]-9H-carbazole-3-carboxylic acid] the same measures were 100 to 1000 nM and 1 to 10 µM.
Regarding `O=C(O)c1ccc2c(c1)c1cc(Cc3ccc(F)cc3)ccc1n2-c1ccc(C(F)(F)F)cc1` [Compound 4, 6-[(4-fluorophenyl)methyl]-9-[4-(trifluoromethyl)phenyl]-9H-carbazole-3-carboxylic acid], the IC50 is 100 to 1000 nM in the assay with YAP-TEAD interaction and above 10 µM with NCI-H226 cells.
For `O=C(O)c1ccc2c(c1)c1ccncc1n2-c1ccc(C(F)(F)F)cc1` [Compound 5, 9-[4-(trifluoromethyl)phenyl]-9H-pyrido[3,4-b]indole-6-carboxylic acid] the same measures were 100 to 1000 nM and 0.1 to 1 µM.
Take `O=C(O)c1ccc2c(c1)c1cnccc1n2-c1ccc(C(F)(F)F)cc1` [Compound 7, 5-[4-(trifluoromethyl)phenyl]-5H-pyrido[4,3-b]indole-8-carboxylic acid]: the IC50 in the assay on YAP-TEAD interaction was above 1000 nM; in the assay on NCI-H226 cells, above 10 µM.
With `N#Cc1ccc2c(c1)c1cc(C(=O)O)ccc1n2-c1ccc(C(F)(F)F)cc1` [Compound 12, 6-cyano-9-[4-(trifluoromethyl)phenyl]-9H-carbazole-3-carboxylic acid], the IC50 in the assay with YAP-TEAD interaction lay within 10 to 100 nM; in the assay with NCI-H226 cells, 1 to 10 µM.
For `O=C(O)c1ccc2c(c1)c1cc(OC(F)(F)F)ccc1n2-c1ccc(C(F)(F)F)cc1` [Compound 15, 6-(trifluoromethoxy)-9-[4-(trifluoromethyl)phenyl]-9H-carbazole-3-carboxylic acid] the same measures were 10 to 100 nM and 0.001 to 0.1 µM.
The molecule `O=C(O)c1cc2c3ccccc3n(Cc3ccc(C(F)(F)F)cc3)c2cn1` [Compound 32, 9-{[4-(trifluoromethyl)phenyl]methyl}-9H-pyrido[3,4-b]indole-3-carboxylic acid] returned an IC50 in the assay on YAP-TEAD interaction above 1000 nM.
Regarding `O=C(NC1CC1)c1cc2c3cccnc3n(-c3ccc(C(F)(F)F)cc3)c2cn1` [Compound 36, N-cyclopropyl-8-[4-(trifluoromethyl)phenyl]-5,8,10-triazatricyclo[7.4.0.0^2,^7]trideca-1(9),2(7),3,5,10,12-hexaene-4-carboxamide], the IC50 was in the range of 100 to 1000 nM with YAP-TEAD interaction and 0.1 to 1 µM in the assay on NCI-H226 cells.
Molecule `Cc1ccc2c(c1)c1cc(C(=O)NCC(O)C(F)(F)F)ccc1n2-c1ccc(C(F)(F)F)cc1` (stereo not shown) [Compound 60, 6-methyl-N-(3,3,3-trifluoro-2-hydroxypropyl)-9-[4-(trifluoromethyl)phenyl]-9H-carbazole-3-carboxamide] had an IC50 in the assay on YAP-TEAD interaction of 100 to 1000 nM.
Still for that read-out and setting: the result for `Cc1ccc2c(c1)c1cc(C(=O)NCc3ccccn3)ccc1n2-c1ccc(OC(F)(F)F)cc1` [Compound 64, 6-methyl-N-[(pyridin-2-yl)methyl]-9-[4-(trifluoromethoxy)phenyl]-9H-carbazole-3-carboxamide] reads above 1000 nM.
In the assay with YAP-TEAD interaction, `Cc1ccc2c(c1)c1cc(C(=O)NCc3ncccn3)ccc1n2-c1ccc(OC(F)(F)F)cc1` [Compound 65, 6-methyl-N-[(pyrimidin-2-yl)methyl]-9-[4-(trifluoromethoxy)phenyl]-9H-carbazole-3-carboxamide] gave an IC50 above 1000 nM.
On the same count and under the same terms, the result for `Cc1ccc2c(c1)c1cc(C(=O)NCc3cnccn3)ccc1n2-c1ccc(OC(F)(F)F)cc1` [Compound 66, 6-methyl-N-[(pyrazin-2-yl)methyl]-9-[4-(trifluoromethoxy)phenyl]-9H-carbazole-3-carboxamide] reads above 1000 nM; that for `Cc1ccc2c(n1)c1cc(C(N)=O)ccc1n2-c1ccc(C(F)(F)F)cc1` [Compound 67, 2-methyl-5-[4-(trifluoromethyl)phenyl]-5H-pyrido[3,2-b]indole-8-carboxamide], 10 to 100 nM; that for `Cc1cc2c3cc(C(=O)NC4CC4)ccc3n(-c3ccc(C(F)(F)F)cc3)c2cc1C` [Compound 70, N-cyclopropyl-6,7-dimethyl-9-[4-(trifluoromethyl)phenyl]-9H-carbazole-3-carboxamide], 10 to 100 nM.
On to `Cc1ccc2c(c1)c1cc(C(=O)N[C@H](C)CO)ccc1n2-c1ccc(C(F)(F)F)cc1` [Compound 71, N-[(2R)-1-hydroxypropan-2-yl]-6-methyl-9-[4-(trifluoromethyl)phenyl]-9H-carbazole-3-carboxamide], for which the IC50 with YAP-TEAD interaction was 100 to 1000 nM.
Molecule `Cc1ccc2c(c1)c1cc(C(=O)N[C@@H](C)CO)ccc1n2-c1ccc(C(F)(F)F)cc1` [Compound 72, N-[(2S)-1-hydroxypropan-2-yl]-6-methyl-9-[4-(trifluoromethyl)phenyl]-9H-carbazole-3-carboxamide] displayed an IC50 in the assay with YAP-TEAD interaction of 100 to 1000 nM.
Molecule `Cc1ccc2c(c1)c1cc(C(=O)NCc3ccncn3)ccc1n2-c1ccc(OC(F)(F)F)cc1` [Compound 73, 6-methyl-N-[(pyrimidin-4-yl)methyl]-9-[4-(trifluoromethoxy)phenyl]-9H-carbazole-3-carboxamide] had an IC50 in the assay with YAP-TEAD interaction above 1000 nM.
`CNC(=O)c1ccc2c(c1)c1cc(C)c(C)cc1n2-c1ccc(C(F)(F)F)cc1` [Compound 74, N,6,7-trimethyl-9-[4-(trifluoromethyl)phenyl]-9H-carbazole-3-carboxamide]: the IC50 in the assay on YAP-TEAD interaction is 1 to 10 nM.
Still for that read-out and setting: the value for `Cc1cc2c3cc(C(=O)NCCO)ccc3n(-c3ccc(C(F)(F)F)cc3)c2cc1C` [Compound 75, N-(2-hydroxyethyl)-6,7-dimethyl-9-[4-(trifluoromethyl)phenyl]-9H-carbazole-3-carboxamide] was 10 to 100 nM; that for `Cc1cc2c3cc(C(N)=O)ccc3n(-c3ccc(C(F)(F)F)cc3)c2cc1C` [Compound 76, 6,7-dimethyl-9-[4-(trifluoromethyl)phenyl]-9H-carbazole-3-carboxamide] was 10 to 100 nM.

The values above are taken from patent publication US20230278958A1 (Merck Patent GmbH, priority 2020, published 2023).
